Counter-ions that a name gives are not always drawn.
Test system: seasonal allergic rhinitis
Assay: Multicenter, placebo-controlled, double-blind, randomized multiple-dose efficacy trial in seasonal allergic rhinitis
Assay type: in vivo, human
Excerpt: The study was a multicenter, outpatient, multiple-dose, placebo controlled, double-blind, double-dummy, parallel-group, randomized trial.
The study enrolled 1070 appropriately selected patients who were at least 12 years of age and included both males and females. […] Qualified subjects were required to undergo a 3-30 day run-in phase to establish that the patients had sufficiently severe allergy symptoms, during which time they reflectively assessed the severity of the following symptoms in the morning (upon waking) and in the evening (prior to bedtime): nasal congestion, sneezing, rhinorrhea, itchy nose/throat/palate; itchy/watery/red eyes and headache/facial pain/pressure/discomfort. The severity of each symptom was assessed using a 4-point categorical scale where 0=none (no symptom present), 1=mild (minimal awareness of symptom, symptom easily tolerated), 2=moderate (symptom present and bothersome, but tolerable) and 3=severe (symptom hard to tolerate; may cause interference with daily activities/sleeping). […] Patients were also assessed for allergy associated pain and were asked if they were in pain. […]

Question: How did the “relief of histamine-mediated symptoms, result in words” value turn out when `CN(C)CCC(c1ccc(Cl)cc1)c1ccccn1` (stereo not shown) [chlorpheniramine, chlorpheniramine maleate] was run?
Answer: The value was “more effective than the placebo”.
